From patent publication US20250230129A1, “POLYAMIDE COMPOUNDS, METHOD FOR PREPARING SAME, AND MEDICAL USE THEREOF” (priority 2022, published 2025)
pEC50, pKi: −log10 of the molar value. Read-outs that look alike come from different tables or passages of the source. Square brackets hold non-standard residues; d marks the D form. Peptide text beside a SMILES is read from it. * marks the point of attachment. Gly(N-(2R-Ph-propyl)) = C[C@@H](CNCC(=O)O)c1ccccc1; Piperidin1yl(4-NH2,4-COOH) = NC1(C(=O)O)CCN(*)CC1; dPhLac = O=C(O)[C@H](O)Cc1ccccc1; X4 = COC(=O)NC1CCN(*)CC1

Tests used:
ICR mice [1] = test: Acetic acid writhing test in mice; format: in vivo; details: Mus musculus, read-out: Acetic acid writhing in mice ED50
μ receptor = μ receptor (Homo sapiens (Human), UniProt P35372); test: μ receptor affinity assay (3H-DAMGO); format: binding
[2] = molecular target: κ-opioid receptor (Kappa) (Homo sapiens (Human), UniProt P41145); test: In vitro functional assay, HTRF cAMP-Gi in CHO-K1-OPRK1 cells; format: cell-based
δ receptor = δ receptor (Homo sapiens (Human), UniProt P41143); test: Competitive delta receptor binding assay (3H-DADLE)
[3] = PK and blood-brain barrier permeability in mice; format: in vivo; details: male ICR mice, intravenous 1 mg/kg; for AUC(0-inf) / Vd / clearance / half-life / Cmax: plasma; for half-life: read-out: t½ (converted)
Protocol: The compounds of the present disclosure were investigated for pharmacokinetic characteristics and blood-brain barrier permeability in mice.
Healthy male ICR mice were randomly grouped, 6 animals per group. For each test compound, 3 groups of animals were used. The first group of animals was used for collecting blood and brain 5 min after the administration, and the second group of animals and the third group of animals were used for cross blood collection at subsequent time points; each test compound was intravenously administered (1 mg/kg) to corresponding groups of mice, and blood sampling via submaxillary veins of the mice was carried out at different time points. Drug contents in plasma and brain tissues at different time points were measured by an LC-MS/MS method, the brain-to-blood ratio B/P was calculated by using EXCEL software, and pharmacokinetic parameters were calculated by using DAS3.0 software.

κ receptor = κ receptor (Homo sapiens (Human), UniProt P41145); test: Competitive Kappa receptor binding assay (3H-U69593)
[4] = Autonomous activity test in mice; details: male, ICR, mouse, in vivo, iv
ICR mice [5] = test: Sedation safety window; details: sedation side effect ED50 (autonomic activity test)/efficacy ED50 (acetic acid writhing test)
hERG = hERG (Homo sapiens (Human), UniProt Q12809); test: in vitro; details: pH 7.4
ICR mice [6] = details: mouse, in vivo
in vivo = details: male, ICR, mouse, iv
[7] = single intravenous injection, male ICR mice
[8] = blood and brain 5 min after administration

Structure (SMILES)	ED50 (ICR mice [1]; [7]) [mg/kg]	pKi (μ receptor)	pEC50 [2]	pKi (δ receptor)	B/P (brain-to-blood ratio) [3, 8]	AUC(0-inf) ([3]; mouse) [ng·h/mL]	Vd ([3]; mouse) [L/kg]	clearance ([3]; mouse) [mL/min/kg]	half-life ([3]; mouse) [min]	Cmax ([3]; mouse) [ng/mL]	pKi (κ receptor)	ED50 at 30 min [4] [mg/kg]	Safety window (ICR mice [5])	inhibition at 10 µM (hERG) [%]	ED50 (ICR mice [1]; iv) [mg/kg]	Safety window (ICR mice [6])	ED50 (in vivo) [mg/kg]	Kp at 5 min ([3]; mouse, brain/plasma, blood and brain 5 min after administration, read-out: B/P (brain-to-blood ratio))
CC(C)C[C@@H](NC(=O)[C@@H](Cc1ccccc1)NC(=O)N(CCN)Cc1ccccc1)C(=O)N[C@H](CCCCN)C(=O)N1CCS(=O)(=O)CC1 [Compound 21]	0.5	< 6.00	9.17	< 6.00	0.010	2670	0.63	6.33	69	3460	9.48	1.42	2.82	–	–	–	–	–
CC(C)C[C@@H](NC(=O)[C@@H](Cc1ccccc1)NC(=O)CNC[C@H](C)c1ccccc1)C(=O)N[C@H](CCCCN)C(=O)N1CCC(N)(C(=O)O)CC1 [Comparative Example 1B, reference compound] (H-[Gly(N-(2R-Ph-propyl))][dF][dL][dK]-{Piperidin1yl(4-NH2,4-COOH)})	0.25	–	–	–	–	–	–	–	–	–	–	0.59	2.36	–	–	–	–	–
CC(C)C[C@@H](NC(=O)[C@@H](Cc1ccccc1)NC(=O)N(CCN)Cc1ccccc1)C(=O)N[C@H](CCCCN)C(=O)N1CCC2(CC1)NC(=O)NC2=O [Compound 29]	0.41	< 6.00	10.24	< 6.00	0.010	3340	0.32	5.17	44.4	4710	9.20	1.35	3.28	–	–	–	–	–
CC(C)C[C@@H](NC(=O)[C@@H](Cc1ccccc1)NC(=O)[C@H](N)Cc1ccccc1)C(=O)N[C@H](CCCCN)C(=O)N1CCC2(CC1)OC(=O)Nc1ncccc12 [Compound 4A, (2R)—N-[(2R)-6-amino-1-oxo-1-{2′-oxo-1′H-spiro[piperidine-4,4′-pyrido[2,3-d][1,3]oxazin]-1-yl}hex-2-yl]-2-[(2R)-2-[(2R)-2-amino-3-phenylpropionylamino]-3-phenylpropionylamino]-4-methylpentanamide]	0.41	< 6.00	9.70	< 6.00	–	–	–	–	–	–	9.52	1.25	3.05	0.9	–	–	–	–
CC(C)C[C@@H](NC(=O)[C@@H](Cc1ccccc1)NC(=O)N(C)C(CN)c1ccccc1)C(=O)N[C@H](CCCCN)C(=O)N1CCS(=N)(=O)CC1 (stereo partly shown) [Compound 10]	–	< 6.00	8.96	< 6.00	0.007	4010	0.29	4.17	49.2	3220	9.07	–	–	–	–	–	–	–
CC(C)C[C@@H](NC(=O)[C@@H](Cc1ccccc1)NC(=O)N(CCN)Cc1ccccc1)C(=O)N[C@H](CCCCN)C(=O)N1CCC(N)(C(=O)O)CC1 [Compound 13]	0.23	< 6.00	9.28	< 6.00	0.015	1350	0.38	12.3	21	2540	9.89	2.83	12.30	0.8	–	–	–	–
CC(C)C[C@@H](NC(=O)[C@@H](Cc1ccccc1)NC(=O)N(Cc1ccccc1)C1CCNC1)C(=O)N[C@H](CCCCN)C(=O)N1CCC(N)(C(=O)O)CC1 (stereo partly shown) [Compound 27]	0.88	< 6.00	9.06	< 6.00	0.010	1160	0.63	14.7	30	2320	9.06	4.59	5.22	–	–	–	–	–
CC(C)C[C@@H](NC(=O)[C@@H](Cc1ccccc1)NC(=O)[C@H](N)Cc1ccccc1)C(=O)N[C@H](CCCCN)C(=O)N1CCS(=N)(=O)CC1 [Compound 1B, (R)—N—((R)-6-amino-1-(1-imino-1-oxo-1λ6-thiomorpholine)-1-oxohex-2-yl)-2-((R)-2-((R)-2-amino-3-phenylpropionylamino)-3-phenylpropionylamino)-4-methylpentanamide]	–	< 6.00	9.28	< 6.00	–	–	–	–	–	–	9.38	–	–	1.2	0.2	2.50	0.5	–
CC(C)C[C@@H](NC(=O)[C@@H](Cc1ccccc1)NC(=O)C[C@@H](N)c1ccccc1)C(=O)N[C@H](CCCCN)C(=O)N1CCC(N)(C(=O)O)CC1 [Compound 4-0, 4-amino-1-[(2R)-6-amino-2-[(2R)-2-[(2R)-2-((3R)-3-amino-3-phenylpropionylamino)-3-phenylpropionylamino]-4-methylpentanoylamino]hexanoyl]piperidine-4-carboxylic acid]	1.14	< 6.00	8.44	< 6.00	–	–	–	–	–	–	8.55	7.34	6.44	–	–	–	–	–
CC(=O)N=S1(=O)CCN(C(=O)[C@@H](CCCCN)NC(=O)[C@@H](CC(C)C)NC(=O)[C@@H](Cc2ccccc2)NC(=O)[C@H](N)Cc2ccccc2)CC1 [Compound 3B]	–	< 6.00	9.00	< 6.00	–	–	–	–	–	–	8.98	–	–	1.13	0.42	7.74	–	–
COC(=O)NC1CCN(C(=O)[C@@H](CCCCN)NC(=O)[C@@H](CC(C)C)NC(=O)[C@@H](Cc2ccccc2)NC(=O)N(C)C(CN)c2ccccc2)CC1 (stereo partly drawn) [Compound 12, methyl N-{1-[(2R)-6-amino-2-[(2R)-2-[(2R)-2-{[(2-amino-1-phenylethyl)(methyl)carbamoyl]amino}-3-phenylpropionylamino]-4-methylpentanoylamino]hexanoyl]piperidin-4-yl}carbamate]	–	< 6.00	9.77	< 6.00	–	3680	0.54	4.67	85.2	2260	9.28	–	–	2.13	–	–	–	0.008
CC(C)C[C@@H](NC(=O)[C@@H](Cc1ccccc1)NC(=O)N(CCN)CC1CC1)C(=O)N[C@H](CCCCN)C(=O)N1CCC(N)(C(=O)O)CC1 [Compound 48]	–	< 6.00	7.92	< 6.00	–	–	–	–	–	–	8.42	–	–	–	–	–	–	–
COC(=O)NC1CCN(C(=O)[C@@H](CCCCN)NC(=O)[C@@H](CC(C)C)NC(=O)[C@@H](Cc2ccccc2)NC(=O)[C@H](O)Cc2ccccc2)CC1 [Compound 11] (H-[dPhLac][dF][dL][dK]-X4)	1.82	< 6.00	8.29	< 6.00	–	–	–	–	–	–	9.03	9.6	5.27	–	–	–	–	–
COC(=O)C1(N)CCN(C(=O)[C@@H](CCCCN)NC(=O)[C@@H](CC(C)C)NC(=O)[C@@H](Cc2ccccc2)NC(=O)N(CCN)Cc2ccccc2)CC1 [Compound 13-2, methyl 4-amino-1-[(2R)-6-amino-2-[(2R)-2-[(2R)-2-{[2-aminoethyl(benzyl)carbamoyl]amino}-3-phenylpropionylamino]-4-methylpentanoylamino]hexanoyl]piperidine-4-carboxylate]	0.17	< 6.00	9.89	< 6.00	BQL**	1690	0.63	10	43.2	2930	9.89	2.75	16.18	–	–	–	–	–
COC(=O)NC1CCN(C(=O)[C@@H](CCCCN)NC(=O)[C@@H](CC(C)C)NC(=O)[C@@H](Cc2ccccc2)NC(=O)[C@H](N)Cc2ccccc2)CC1 [Compound 1A]	0.38	< 6.00	10.30	< 6.00	–	–	–	–	–	–	9.40	1.08	–	-0.94	–	2.84	–	–
